Results reported in patent US9408850B2, “Substituted indazole derivatives active as kinase inhibitors” (NERVIANO MEDICAL SCIENCES S.R.L., priority 2011, dated 2016).
Counter-ions that a name gives are not always drawn.

What was measured:
[1] = molecular target: KIT cytoplasmic domain (GST fused protein) (Homo sapiens (Human), UniProt P10721); assay: Biochemical assay for inhibitors of KIT kinase activity; settings: 4 nM pre activated enzyme, 4.4 microM ATP, 60 minutes at r.t.
Procedure: KIT cytoplasmic domain (aa 544-976end of the 976 aminoacid long full length sequence, accession number P10721 of UniProtKB/Swiss-Prot database) was cloned into pVL vector for expression in insect cells through the baculovirus system. The GST-KIT cytoplasmic domain has been expressed in Sf21 cells infected for 66 hrs at 27° C. The recombinant protein has been purified by affinity on GSH-sepharose and eluted with glutathione. […] General Principle-A specific peptidic substrate was trans-phosphorylated by the kinase in the presence of ATP traced with 33Pγ-ATP. At the end of the phosphorylation reaction, the not reacted ATP, cold and radioactive, was captured by an excess of dowex ion exchange resin that eventually settled by gravity to the bottom of the reaction plate. The supernatant was subsequently withdrawn and transferred into a counting plate that was then evaluated by β-counting. • ii. Dowex resin preparation-500 g of wet resin (SIGMA, custom prepared resin DOWEX 1×8 200-400 mesh, 2.5 Kg) were weighed out and diluted to 2 L in 150 mM sodium formate, pH 3.00. The resin was allowed to settle down overnight and then the supernatant was discarded. After three washes as above over a couple of days, the resin was allowed to settle and two volumes (with respect to the resin volume) were added of 150 mM sodium formate buffer. Biochemical Assay for Inhibitors of FLT3 Kinase Activity • i. Enzyme-The assay was performed using FLT3 cytoplasmic domain product and purified in house as GST fused protein. […] The peptide was purchased from American Peptide Company (Sunnyvale, Calif.). Biochemical Assay for Inhibitors of KIT Kinase Activity • i. Enzyme-The assay has been performed using KIT cytoplasmic domain product and purified in house as GST fused protein. […] NO: 2). The peptide was purchased from American Peptide Company (Sunnyvale, Calif.). Compound Testing • i. […] An automated station for serial dilutions (Biomek FX, Beckman) was used for producing 1:3 dilutions in 100% DMSO, from line A1 to A10, and for all the compounds in the column. […] The following dispensation into the plates plus 3 cycles of mixing, done by the robot itself, started the kinase reaction. At this point, the correct concentrations were restored for all the reagents. The robot incubated the plates for 60 minutes at r.t., and then stopped the reaction by pipetting 60 microL of dowex resin suspension into the reaction mix. In order to avoid tip clogging, wide bore tips were used to dispense the resin suspension. Three cycles of mixing were done immediately after the addition of the resin. Another mixing cycle was performed after all the plates were stopped, this time using normal tips: the plates were then allowed to rest for about one hour in order to allow resin sedimentation. […] Data Fitting-Data were analyzed by an internally customized version of the SW package “Assay Explorer” that provided sigmoidal fitting of the ten-dilutions curves for IC50 determination in the secondary assays/hit confirmation routines. Cell-Based Assays for Inhibitors of FLT3 Kinase Activity In vitro Cell Proliferation Assay for Inhibitors of FLT3 Kinase Activity

[2] = tested on: MV-4-11 cells, bearing a FLT3-ITD mutation; assay: In vitro cell proliferation assay (CellTiter-Glo), MV-4-11; assay type: cell-based; settings: Homo sapiens, MV4-11, MV-4-11, 72 h
Procedure: (§1) The human acute leukemia MOLM-13 AND MV-4-11 cells, bearing a FLT3-ITD mutation, were seeded (5000 cells/well) in white 384 well-plates in complete medium (RPMI 1640 plus 10% Fetal bovine serum) and treated with compounds dissolved in 0.1% DMSO, 24 h after seeding. The cells were incubated at 37° C. and 5% CO2 and after 72 h the plates were processed using CellTiter-Glo assay (Promega) following the manufacturer's instruction.
(§2) CellTiter-Glo is a homogenous method based on the quantification of the ATP present, an indicator of metabolitically active cells. ATP was quantified using a system based on luciferase and D-luciferin resultant into light generation. The luminescent signal was proportional to the number of cells present in culture.
(§3) Briefly, 25 microL/well reagent solution were added to each well and, after 5 minutes shaking, microplates were read by Envision (PerkinElmer) luminometer. Inhibitory activity was evaluated comparing treated versus control data using Symyx Assay Explorer (Symyx Technologies Inc.) program. IC50 was calculated using sigmoidal interpolation curve.

[3] = molecular target: FLT3 cytoplasmic domain (GST fused protein) (Homo sapiens (Human), UniProt P36888); assay: Biochemical assay for inhibitors of FLT3 kinase activity; settings: 2 nM pre activated enzyme, 254 microM ATP, 60 minutes at r.t.
Procedure: FLT3 cytoplasmic domain (aa 564-993end of the 993 aminoacid long full length sequence, accession number P36888 of UniProtKB/Swiss-Prot. database) was amplified by PCR starting from a testis cDNA library and then cloned into pVL vector for expression in insect cells through the baculovirus system. The GST-FLT3 cytoplasmic domain has been expressed in Sf21 cells infected for 72 hours at 27° C. The recombinant protein has been purified by affinity on GSH-sepharose and eluted with glutathione. A further purification step has been performed on heparine sepharose. […] General Principle-A specific peptidic substrate was trans-phosphorylated by the kinase in the presence of ATP traced with 33Pγ-ATP. At the end of the phosphorylation reaction, the not reacted ATP, cold and radioactive, was captured by an excess of dowex ion exchange resin that eventually settled by gravity to the bottom of the reaction plate. The supernatant was subsequently withdrawn and transferred into a counting plate that was then evaluated by β-counting. • ii. Dowex resin preparation-500 g of wet resin (SIGMA, custom prepared resin DOWEX 1×8 200-400 mesh, 2.5 Kg) were weighed out and diluted to 2 L in 150 mM sodium formate, pH 3.00. The resin was allowed to settle down overnight and then the supernatant was discarded. After three washes as above over a couple of days, the resin was allowed to settle and two volumes (with respect to the resin volume) were added of 150 mM sodium formate buffer. Biochemical Assay for Inhibitors of FLT3 Kinase Activity • i. Enzyme-The assay was performed using FLT3 cytoplasmic domain product and purified in house as GST fused protein. […] NO: 1). The peptide was purchased from American Peptide Company (Sunnyvale, Calif.). Biochemical Assay for Inhibitors of KIT Kinase Activity • i. Enzyme-The assay has been performed using KIT cytoplasmic domain product and purified in house as GST fused protein. […] NO: 2). The peptide was purchased from American Peptide Company (Sunnyvale, Calif.). Compound Testing • i. […] An automated station for serial dilutions (Biomek FX, Beckman) was used for producing 1:3 dilutions in 100% DMSO, from line A1 to A10, and for all the compounds in the column. […] The following dispensation into the plates plus 3 cycles of mixing, done by the robot itself, started the kinase reaction. At this point, the correct concentrations were restored for all the reagents. The robot incubated the plates for 60 minutes at r.t., and then stopped the reaction by pipetting 60 microL of dowex resin suspension into the reaction mix. In order to avoid tip clogging, wide bore tips were used to dispense the resin suspension. Three cycles of mixing were done immediately after the addition of the resin. Another mixing cycle was performed after all the plates were stopped, this time using normal tips: the plates were then allowed to rest for about one hour in order to allow resin sedimentation. […] Data Fitting-Data were analyzed by an internally customized version of the SW package “Assay Explorer” that provided sigmoidal fitting of the ten-dilutions curves for IC50 determination in the secondary assays/hit confirmation routines. Cell-Based Assays for Inhibitors of FLT3 Kinase Activity In vitro Cell Proliferation Assay for Inhibitors of FLT3 Kinase Activity

[4] = tested on: MOLM-13 cells, bearing a FLT3-ITD mutation; assay: In vitro cell proliferation assay (CellTiter-Glo), MOLM-13; assay type: cell-based; settings: Homo sapiens, MOLM-13, 72 h
Procedure: as §1, §2, §3

KIT cytoplasmic domain (GST fused protein), sequence (P10721 544-976): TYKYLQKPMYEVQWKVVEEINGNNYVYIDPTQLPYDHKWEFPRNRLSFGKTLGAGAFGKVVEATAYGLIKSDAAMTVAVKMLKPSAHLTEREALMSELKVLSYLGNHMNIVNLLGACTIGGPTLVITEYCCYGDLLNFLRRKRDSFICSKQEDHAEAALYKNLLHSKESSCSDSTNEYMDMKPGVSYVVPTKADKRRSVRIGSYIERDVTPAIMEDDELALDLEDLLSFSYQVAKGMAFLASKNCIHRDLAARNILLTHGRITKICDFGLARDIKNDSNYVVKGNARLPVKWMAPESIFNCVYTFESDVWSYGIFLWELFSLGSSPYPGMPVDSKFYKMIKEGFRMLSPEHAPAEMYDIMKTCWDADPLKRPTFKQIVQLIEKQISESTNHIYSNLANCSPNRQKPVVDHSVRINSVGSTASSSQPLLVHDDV
FLT3 cytoplasmic domain (GST fused protein), sequence (P36888 564-993): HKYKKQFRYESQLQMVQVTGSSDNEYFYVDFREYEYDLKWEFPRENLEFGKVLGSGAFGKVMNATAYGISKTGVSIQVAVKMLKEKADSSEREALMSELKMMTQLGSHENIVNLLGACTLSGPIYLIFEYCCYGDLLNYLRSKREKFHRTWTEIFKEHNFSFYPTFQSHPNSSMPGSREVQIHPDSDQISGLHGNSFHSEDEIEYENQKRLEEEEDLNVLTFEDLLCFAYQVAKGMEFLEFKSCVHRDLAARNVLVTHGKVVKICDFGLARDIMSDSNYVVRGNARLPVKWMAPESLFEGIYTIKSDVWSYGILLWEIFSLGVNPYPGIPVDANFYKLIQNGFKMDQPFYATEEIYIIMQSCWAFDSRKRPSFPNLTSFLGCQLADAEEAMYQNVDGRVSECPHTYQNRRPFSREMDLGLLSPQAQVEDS

| IC50 [1] [µM] | IC50 [3] [µM] | Compound | IC50 [2] [µM] | IC50 [4] [µM] |
| --- | --- | --- | --- | --- |
| 0.055 | 0.056 | CN1CCC(Oc2ccc(C(=O)Nc3n[nH]c4cc(OCCOCc5ccccc5)ccc34)cc2)CC1 [Cpd. 22, N-[6-(2-Benzyloxy-ethoxy)-1H-indazol-3-yl]-4-(1-methyl-piperidin-4-yloxy)-benzamide] | – | – |
| 0.118 | < 0.05 | C[N+]1([O-])CCN(c2ccc(C(=O)Nc3n[nH]c4cc(OCCOCc5ccccc5)ccc34)cc2)CC1 [Cpd. 14, N-[6-(2-Benzyloxy-ethoxy)-1H-indazol-3-yl]-4-(4-methyl-4-oxy-piperazin-1-yl)-benzamide] | – | – |
| 0.091 | < 0.05 | CN1CCC(CNc2ccc(C(=O)Nc3n[nH]c4cc(OCCOCc5ccccc5)ccc34)cc2)CC1 [Cpd. 27, N-[6-(2-Benzyloxy-ethoxy)-1H-indazol-3-yl]-4-[(1-methyl-piperidin-4-ylmethyl)-amino]-benzamide] | – | – |
| 0.076 | < 0.05 | CN(C)C1CCN(c2ccc(C(=O)Nc3n[nH]c4cc(OCCOCc5ccccc5)ccc34)cc2)CC1 [Cpd. 15, N-[6-(2-Benzyloxy-ethoxy)-1H-indazol-3-yl]-4-(4-dimethylamino-piperidin-1-yl)-benzamide] | – | – |
| 1.08 | 0.635 | CN1CCN(c2cccc(C(=O)Nc3n[nH]c4cc(OCCOCc5ccccc5)ccc34)c2)CC1 [Cpd. 29, N-[6-(2-Benzyloxy-ethoxy)-1H-indazol-3-yl]-3-(4-methyl-piperazin-1-yl)-benzamide hydrochloride] | – | – |
| 0.197 | 0.074 | O=C(Nc1n[nH]c2cc(OCCOCc3ccccc3)ccc12)c1ccc(NCCN2CCOCC2)cc1 [Cpd. 25, N-[6-(2-Benzyloxy-ethoxy)-1H-indazol-3-yl]-4-(2-morpholin-4-yl-ethylamino)-benzamide hydrochloride] | – | – |
| 0.061 | < 0.05 | CN1CCC(Nc2ccc(C(=O)Nc3n[nH]c4cc(OCCOCc5ccccc5)ccc34)cc2)CC1 [Cpd. 19, N-[6-(2-Benzyloxy-ethoxy)-1H-indazol-3-yl]-4-(1-methyl-piperidin-4-ylamino)-benzamide] | – | – |

The next lines start with the molecule.

| Compound | IC50 [1] [µM] | IC50 [3] [µM] | IC50 [2] [µM] | IC50 [4] [µM] |
| --- | --- | --- | --- | --- |
| CN(C)Cc1ccc(C(=O)Nc2n[nH]c3cc(OCCOCc4ccccc4)ccc23)cc1 [Cpd. 21, N-[6-(2-Benzyloxy-ethoxy)-1H-indazol-3-yl]-4-dimethylaminomethyl-benzamide] | 0.134 | 0.104 | < 0.05 | – |
| O=C(Nc1n[nH]c2cc(OCCOCc3ccccc3)ccc12)c1ccc(N2CCNCC2)cc1 [Cpd. 20, N-[6-(2-Benzyloxy-ethoxy)-1H-indazol-3-yl]-4-piperazin-1-yl-benzamide] | 0.052 | < 0.05 | < 0.05 | < 0.05 |
| CN1CCN(c2ccc(C(=O)Nc3n[nH]c4cc(OCc5cccc(Oc6ccccc6)c5)ccc34)cc2)CC1 [Cpd. 5, 4-(4-Methyl-piperazin-1-yl)-N-[6-(3-phenoxy-benzyloxy)-1H-indazol-3-yl]-benzamide] | 2.62 | 1.17 | – | – |
| CN1CCN(c2ccc(C(=O)Nc3n[nH]c4cc(Oc5ccc(OCc6ccccc6)cc5)ccc34)cc2)CC1 [Cpd. 4, N-[6-(4-Benzyloxy-phenoxy)-1H-indazol-3-yl]-4-(4-methyl-piperazin-1-yl)-benzamide] | > 10 | 0.974 | – | – |
| CN(C)CCN(C)c1ccc(C(=O)Nc2n[nH]c3cc(OCCOCc4ccccc4)ccc23)cc1 [Cpd. 16, N-[6-(2-Benzyloxy-ethoxy)-1H-indazol-3-yl]-4-[(2-dimethylamino-ethyl)-methyl-amino]-benzamide] | 0.106 | < 0.05 | – | – |
| CN1CCN(c2ccc(C(=O)Nc3n[nH]c4cc(Oc5cccc(F)c5)ccc34)cc2)CC1 [Cpd. 3, N-[6-(3-Fluoro-phenoxy)-1H-indazol-3-yl]-4-(4-methyl-piperazin-1-yl)-benzamide] | 0.564 | 0.639 | – | – |
| C[N+]1([O-])CCN(c2ccc(C(=O)Nc3n[nH]c4cc(OCCOCc5ccc(C(F)(F)F)cc5)ccc34)cc2)CC1 [Cpd. 42, 4-(4-Methyl-4-oxy-piperazin-1-yl)-N-{6-[2-(4-trifluoromethyl-benzyloxy)-ethoxy]-1H-indazol-3-yl}-benzamide hydrochloride] | 0.055 | < 0.05 | – | – |
| CN(C)CCCN(C)c1ccc(C(=O)Nc2n[nH]c3cc(OCCOCc4ccccc4)ccc23)cc1 [Cpd. 17, N-[6-(2-Benzyloxy-ethoxy)-1H-indazol-3-yl]-4-[(3-dimethylamino-propyl)-methyl-amino]-benzamide] | 0.146 | 0.062 | – | – |
| CC(C)(C)OC(=O)N1CCN(c2ccc(C(=O)Nc3n[nH]c4cc(OCCOCc5ccccc5)ccc34)cc2)CC1 [Cpd. 18, 4-{4-[6-(2-Benzyloxy-ethoxy)-1H-indazol-3-ylcarbamoyl]-phenyl}-piperazine-1-carboxylic acid tert-butyl ester] | 1.39 | 0.414 | – | – |
| CN1CCN(c2ccc(C(=O)Nc3n[nH]c4cc(OCC#Cc5ccccc5)ccc34)cc2)CC1 [Cpd. 7, 4-(4-Methyl-piperazin-1-yl)-N-[6-(3-phenyl-prop-2-ynyloxy)-1H-indazol-3-yl]-benzamide] | 1.51 | 0.249 | – | – |
